Tests used:
[1] = tested on: Pseudoperonospora cubensis; assay: Fungicidal activity against Pseudoperonospora cubensis administered through preventive foliar spraying of compound at 25 ppm 1 day before fungal inoculation on cucumber plants assessed as prevention of cucumber downy mildew measured 6 days after inoculation under greenhouse conditions; assay type: functional
[2] = tested on: Pseudoperonospora cubensis; assay: Fungicidal activity against Pseudoperonospora cubensis administered through preventive foliar spraying of compound at 100 ppm 1 day before fungal inoculation on cucumber plants assessed as prevention of cucumber downy mildew measured 6 days after inoculation under greenhouse conditions; assay type: functional
Cucumis sativus [3] = assay: Toxicity against Pseudoperonospora cubensis infected Cucumis sativus (cucumber) plants administered through preventive foliar spraying of compound at 25 to 100 ppm 1 day before fungal inoculation on cucumber plants measured 6 days after inoculation under greenhouse conditions; assay type: organism-based; conditions: in vivo, other, 144 h
Cucumis sativus [4] = assay: Toxicity against Pseudoperonospora cubensis infected Cucumis sativus (cucumber) plants administered through preventive foliar spraying of compound at 100 ppm 5 days before fungal inoculation on cucumber plants measured 6 days after inoculation under field test conditions; assay type: organism-based; conditions: in vivo, other, 144 h
[5] = tested on: Pseudoperonospora cubensis; assay: Fungicidal activity against Pseudoperonospora cubensis administered through preventive foliar spraying of compound at 100 ppm 5 days before fungal inoculation on cucumber plants assessed as prevention of cucumber downy mildew measured 6 days after inoculation under field test conditions; assay type: functional

| Structure (SMILES) | Activity [1] | Activity [2] | Activity (Cucumis sativus [3]) | Activity (Cucumis sativus [4]) | Activity [5] |
| --- | --- | --- | --- | --- | --- |
| CCOC(=O)CSP(=NP(=O)(c1ccccc1)c1ccccc1)(c1ccccc1)c1ccccc1 | 77% | 92% | Non-toxic |  |  |
| CSP(=NP(=S)(c1ccccc1)c1ccccc1)(c1ccccc1)c1ccccc1 | 50% | 82% | Non-toxic |  |  |
| S=P(N=P(SCc1ccccc1)(c1ccccc1)c1ccccc1)(c1ccccc1)c1ccccc1 | 88% | 100% | Non-toxic | Non-toxic | 91% |
| CCSP(=NP(=S)(c1ccccc1)c1ccccc1)(c1ccccc1)c1ccccc1 | 47% | 79% | Non-toxic |  |  |
| C/C=C/CSP(=NP(=O)(c1ccccc1)c1ccccc1)(c1ccccc1)c1ccccc1 | 40% | 79% | Non-toxic |  |  |
| CSP(=NP(=O)(c1ccccc1)c1ccccc1)(c1ccccc1)c1ccccc1 | 41% | 80% | Non-toxic |  |  |
| O=C(CSP(=NP(=O)(c1ccccc1)c1ccccc1)(c1ccccc1)c1ccccc1)Nc1ccccc1 | 75% | 91% | Non-toxic |  |  |
| CCSP(=NP(=O)(c1ccccc1)c1ccccc1)(c1ccccc1)c1ccccc1 | 43% | 82% | Non-toxic |  |  |
| N#CCSP(=NP(=O)(c1ccccc1)c1ccccc1)(c1ccccc1)c1ccccc1 | 74% | 89% | Non-toxic |  |  |
| CCOC(=O)C(C)SP(=NP(=S)(c1ccccc1)c1ccccc1)(c1ccccc1)c1ccccc1 (stereo unspecified) | 70% | 85% | Non-toxic |  |  |
| O=P(N=P(SCc1ccccc1)(c1ccccc1)c1ccccc1)(c1ccccc1)c1ccccc1 | 86% | 100% | Non-toxic | Non-toxic | 88% |
| CCOC(=O)C(C)SP(=NP(=O)(c1ccccc1)c1ccccc1)(c1ccccc1)c1ccccc1 (stereo unspecified) | 76% | 90% | Non-toxic |  |  |
| O=C(CSP(=NP(=O)(c1ccccc1)c1ccccc1)(c1ccccc1)c1ccccc1)NCc1ccccc1 | 76% | 93% | Non-toxic |  |  |
| O=C(CSP(=NP(=S)(c1ccccc1)c1ccccc1)(c1ccccc1)c1ccccc1)NCc1ccccc1 | 73% | 87% | Non-toxic |  |  |

Source: ChEMBL document CHEMBL3045721, “Fungicidal Activity of New Diphenylphosphinic Amide Derivatives” (Biosci Biotechnol Biochem, 1992)
